# Tested on: Parkinson's Disease (PD) patients
# Assay: Levodopa level medication test: UPDRS rigidity score and wrist rigidity index by wearable angular velocity sensor
# Assay type: in vivo
# Conditions: for UPDRS: motor classification for Rigidity & Rest Tremor (0 to 4); for Rigidity label (Avg): average, higher values = lower rigidity; for Rigidity label: higher index values correspond to lower perceived wrist rigidity
# Text: FIG. 6: angular velocity data of a wrist rigidity assessment recorded using a device according to an embodiment of the present disclosure for a first subject for a period of time (a) without levodopa and (b) with a clinically effective dosage regime of levodopa. Also pictured are values of a rigidity index (label) calculated according to the present disclosure. Higher index values correspond to lower perceived wrist rigidity. FIG. 7: angular velocity data of a wrist rigidity assessment recorded using a device according to an embodiment of the present disclosure for a second subject for a period of time (a) without levodopa and (b) with a clinically effective dosage regime of levodopa. Also pictured are values of a rigidity index (label) calculated according to the present disclosure. Higher index values correspond to lower perceived wrist rigidity. Levodopa is an amino acid precursor of dopamine with antiparkinsonian properties. Levodopa is a prodrug that is converted to dopamine by DOPA decarboxylase and can cross the blood-brain barrier. Two patients (person and person) were subjected to a Levodopa level medication test where an experienced neurologist evaluates the subjective Unified PD Rating Scale (UPDRS) motor semi-quantitative classification for Rigidity & Rest Tremor (0 to 4) for a baseline (no levodopa) and in steps of increasing levodopa dosages until a UPDRS of 0 is achieved. This is the dosage as prescribed to the patient. At this dosage, wrist rigidity was evaluated as presently disclosed. As described above, higher index values correspond to lower perceived wrist rigidities. See also FIG. 6-7. A threshold of a rigidity measure according to the present disclosure, for example of 70% or 80%, can thus be used to objectively identify a clinically effective dosage regime. Furthermore, a threshold of a rigidity measure according to the present disclosure can also be used to identify a clinically effective dosage regime which also minimizes the risk of side effects.
smiles,measurement,setting,value
N[C@@H](Cc1ccc(O)c(O)c1)C(=O)O [Levodopa],UPDRS,"Subject 1, with clinically effective dosage of levodopa, baseline without levodopa 3",0
same,Rigidity label (Avg),"Subject 1, with levodopa, baseline without levodopa 46.9",74.3%
same,Rigidity label,"Subject 1, with levodopa, baseline without levodopa 40-50",70-80%
same,UPDRS,"Subject 2, with clinically effective dosage of levodopa, baseline without levodopa 2",0
same,Rigidity label (Avg),"Subject 2, with levodopa, baseline without levodopa 48.6",84.9%
same,Rigidity label,"Subject 2, with levodopa, baseline without levodopa 50",80-90%
